Assay results: US5340806A, “Composition containing organogermanium compound and immunity adjusting agent comprising the composition” (Sanwa Kagaku Kenkyusho Co., Ltd., priority 1984, dated 1994)
Read-outs that look alike come from different tables or passages of the source.

Legend:
[1] = system: spleen cells (PFC), Sarcoma 180 cancered mice; assay: Antibody production ability in cancered mouse (spleen cell PFC); format: in vivo, ICR male mice; conditions: oral for 5 days, depending on dosing amount; FIG. 9
Method: 2×10^6 cells of a mouse tumor cell (Sarcoma 180) were implanted under the skin of a side part of ICR male mice to form a solid cancer. The organogermanium compound (Compound No. 1 in Table 1) dissolved in 4% cattle serum albumin solution was orally dosed to the cancered mice for 5 days, after 9 days had elapsed from the implantation, 2×10^8 corpuscles of SRBC were injected in a tail vein of the mice for sensitization. After 4 days from the sensitization, spleen cells were extracted to measure of PFC therein, which was used as an index of the antibody productivity.

BALB/C mouse lymphocytes = assay: Antibody production in culture system of BALB/C mouse lymphocytes; format: cell-based, BALB/C male mice
[2] = system: HIV (Human Immunodeficiency Virus); format: in vivo; conditions: for OKT4/8 ratio: before 0.36±0.03; for OKT4-value: before 463±64/μl
Method: Effects of the organogermanium compound are checked by giving the capsule obtained in Pharmaceutical Composition Preparing Example 7 to 6 patients infected by HIV (Human Immunodeficiency Virus), who are male hemophiliacs (Age: 6 to 22 years old) recognized as asymptomatic carriers, and among them 5 patients were positive to HIV and 1 patient was negative to HIV.
To each patient, the capsule was given in a dose of 80 mg/day for the patients of 10 years old or over and 40 mg/1 day for the patients less than 10 years old, for 9 months. The number of blood lymphocytes, OKT4 -value, OKT8 -value and OKT4/8 ratio, as well as the change in the virus marker (HIV, HIV antigen and HIV antibody) in blood of the patients were monitored. The separation of the HIV was carried out in accordance with the CDC (Communicable Disease Center) method, and the measurement of the HIV antigen was carried out using the Western blotting method.

chronic B hepatitis [3] = format: in vivo, human patients
Method: Search on utility or effectiveness of the organogermanium compound on patients who are infected with chronic B hepatitis, or with non A non B hepatitis, and show "positive" to HBe antigen as well as a preferable amount of dose thereof.
The amount of dose has been set as follows, by taking the results given in In Vivo Utilization Example 1 into consideration.
(a) 30 mg/day/body showing most preferable data in effectiveness, and
(b) 15 mg/day/body (half amount).
Experimental period of time was set for 12 weeks.
(a) Examination of liver functions (GOT, GPT, total bilirubin, LDH, y-GTP, and y-globulin), and
(b) Examination with use of HBV marker (HBe-Ag).

chronic B hepatitis [4] = format: in vivo, human patients; conditions: 30 mg/day
Text: Utility or effectiveness of the organogermanium compound is checked in comparison with that of a placebo as a control. Interferons have widely been accepted as drugs for curing chronic hepatitis, but those are injectionally dosed. On the contrary, the organogermanium compound is orally dosed. In recent years, some oral medicines for curing liver diseases have been developed and the effectiveness thereof has been evaluated by using a placebo as its control. Therefore, the "placebo" is selected as the control for the evaluation of the organogermanium compound in question. (a) To patients with chronic B hepatitis: 30 mg/day/body. Experiment period of time was set for 16 weeks for the patients with chronic B hepatitis and for 12 weeks for the patients with non A and non B hepatitis.

“3-oxygermylpropionic acid [Compound No. 1]” was tested, and the “ability to produce antibodies (PFC)” value [1] was “the ability to produce antibodies recovers towards a normal level”, the antibody producing function (BALB/C mouse lymphocytes; 10 μg/ml, FIG. 10b) was “an acceleration of the function” and the antibody producing function (BALB/C mouse lymphocytes; 1 to 2 μg/ml) was “no change”. The “side-effect in clinical observation” value ([2]; 9 months) was “did not show any side-effect”, the OKT4/8 ratio ([2]; after 1 month) was 0.42±0.02 and the OKT4-value ([2]; after 2 months) was 549 ± 89 µL⁻¹. The OKT4/8 ratio ([2]; after 3 months) was 0.51±0.06, the OKT4/8 ratio ([2]; after 6 months) was 0.54±0.05 and the OKT4-value ([2]; after 6 months) was 629 ± 97 µL⁻¹. The OKT8-value ([2]; after 6 months, before 1303±174/μl) was 1154 ± 153 µL⁻¹, the number of lymphocytes ([2]; after 6 months, before 2430±311/μl) was 2349 ± 312 µL⁻¹ and the “HIV disappeared (persons)” value ([2]; among 5 HIV positive patients, dosage over 6 months) was 3 persons. The “no change in virus marker (persons)” value ([2]; among 5 HIV positive patients, over 9 months) was 2 persons, the “change in OKT4-value” ([2]; human, in vivo) was “a certain increasing tendency” and the “change in OKT4/8 ratio” value ([2]; human, in vivo) was “a slow increase in the ratio”. The “change in OKT8-value” ([2]; human, in vivo) was “a certain decreasing tendency”, the “change in number of lymphocytes” value ([2]; human, in vivo) was “No noticeable change” and the “some increase in appetite and body weight (persons)” value ([2]; human, in vivo) was 2 persons. For the same substance, the “Effectiveness (slight or more)” value (chronic B hepatitis [3]; 15 mg/day) was 38%, the “General judgement: Improvement (slight or more)” value (chronic B hepatitis [3]; 15 mg/day) was 36% and the “Effectiveness (slight or more)” value (chronic B hepatitis [3]; 30 mg/day) was 60%. For the same substance, the “General judgement: Improvement (slight or more)” value (chronic B hepatitis [3]; 30 mg/day) was 62%, the GOT change (chronic B hepatitis [3]; 30 mg/day, 12 weeks) was “.dwnarw. ***” and the GPT change (chronic B hepatitis [3]; 30 mg/day, 12 weeks) was “.dwnarw. ***”. The “HBe-Ag (log conversion) change” value (chronic B hepatitis [3]; 30 mg/day, 12 weeks) was “.dwnarw. +”, the LDH change (chronic B hepatitis [3]; 30 mg/day, 12 weeks) was “.dwnarw. *” and the A/G change (chronic B hepatitis [4]) was “.uparw. **”. The GOT change (chronic B hepatitis [4]) was “.dwnarw. ***”, the “GOT, test versus placebo” value (chronic B hepatitis [4]) was “+ (S>P)” and the GPT change (chronic B hepatitis [4]) was “.dwnarw. ***”. The “GPT, test versus placebo” value (chronic B hepatitis [4]) was “* (S>P)”, the Globulin change (chronic B hepatitis [4]) was “.dwnarw. ***” and the “Globulin, test versus placebo” value (chronic B hepatitis [4]) was “+ (S>P)”. The “HBe-AG (log conversion) change” value (chronic B hepatitis [4]) was “.uparw. ***”, the “HBe-AG (log conversion), test versus placebo” value (chronic B hepatitis [4]) was “* (S>P)” and the HBe-Ab change (chronic B hepatitis [4]) was “.uparw. *”. For the same substance, the “HBe-Ab, test versus placebo” value (chronic B hepatitis [4]) was “* (S>P)”, the Serum albumin change (chronic B hepatitis [4]) was “.uparw. +” and the TTT change (chronic B hepatitis [4]) was “.dwnarw. ***”. The Total cholesterol change (chronic B hepatitis [4]) was “.uparw. *”, the “Total cholesterol, test versus placebo” value (chronic B hepatitis [4]) was “* (S>P)” and the ZTT change (chronic B hepatitis [4]) was “.dwnarw. **”. For the same substance, the γ-GPT change (chronic B hepatitis [4]) was “.dwnarw. **”, the “Improvement (objective)” value (chronic B hepatitis [4]; 16 weeks, placebo 13%) was 10% and the “Improvement (HBe Ag-Ab)” value (chronic B hepatitis [4]; 16 weeks, placebo 25%) was 51%. The “Improvement (sec. judgement)” value (chronic B hepatitis [4]; 16 weeks, placebo 29%) was 54%, the “Improvement (Doc. on duty)” value (chronic B hepatitis [4]; 16 weeks, placebo 31%) was 58% and the “Effectiveness (slight or more)” value (chronic B hepatitis [4]; 16 weeks, placebo 34%) was 63%. The “Improvement (general)” value (chronic B hepatitis [4]; 16 weeks, placebo 39%) was 66% and the “Improvement (self)” value (chronic B hepatitis [4]; 16 weeks, placebo 40%) was 53%.
